Data set [1] relates to H4K8Ac. Nature of the data set: Immunohistochemistry of dorsal hippocampus 2 hours after intrahippocampal infusion. It counts as in vivo, C57BL/6 mice. The note with it: 1.25 ng/side intrahippocampal infusion. On the procedure:
(§1) Two weeks after mice were infused with AAV-Cre or two hours after hippocampal infusion of the inhibitor, mice were anesthetized deeply with sodium pentobarbital (100 mg/kg, i.p.) and perfused transcardially with ice-cold PBS, pH 7.4, followed by ice-cold 4% paraformaldehyde in PBS, pH 7.4, using a peristaltic perfusion pump (Fisher Scientific). The brains were removed, postfixed overnight at 4° C., and then transferred to 30% sucrose for 48 hr at 4° C. Brains were frozen and cryocut to 20 μm coronal slices, and sections were stored in 0.1M PBS. Floating sections were rinsed in 0.1% Triton X-100 (Fisher Scientific) in PBS, rinsed in PBS, and then blocked for 1 hr at room temperature in 8% normal goat serum (NGS, Jackson ImmunoResearch Laboratories) with 0.3% Triton X-100 in PBS. Sections were rinsed in PBS and for single labeling they were incubated overnight at 4° C. in 2% NGS, 0.3% Triton X-100 in PBS with primary antibody. The sections were then rinsed in PBS and incubated for 2 hr at room temperature with goat anti-rabbit IgG-FITC secondary antibody (1:1000, Millipore Bioscience International). […]
(§2) Images were acquired and using an Olympus (BX51, Japan) microscope using a 4× or 20× objective, CCD camera (QImaging), and QCapture Pro 6.0 software (QImaging) and quantified with ImageJ software (NIH). […]

A short description of data set [2]: in vivo. Conditions: mouse, brain, sc, 30 mg/kg.
The test system of data set [3] is CBP^+/+ mice. Nature of the data set: OLM task in CBP+/+ mice after intrahippocampal infusion. It counts as in vivo. Conditions: intrahippocampal 1.25 ng/side after 3 min training, 24 h. On the procedure: (§3) To generate a focal deletion, mice were infused with adeno associated virus expressing Cre-recombinase (AAV2/1-Cre; Penn Vector Core, University of Pennsylvania, Philadelphia, Pa.) 2 weeks prior to behavioral procedures. Mice were anesthetized with isoflurane and placed in a digital Just For Mice stereotax (Stoelting, Wood Dale, Ill.). 1.0 μl of virus was injected at a rate of 6 μl/hr via an infusion needle positioned in the dorsal CA1 area of the hippocampus (antereoposterior (AP) −2.0; mediolateral (ML) ±1.5; dorsoventral (DV) −1.5). NCoR homozygous knock-in mice (referred to as DADm mice) were generated on C57BL/6 background using homologous recombination to incorporate a single amino acid substitution (Y478A) in the NCoR deacetylase activation domain (DAD). […]
(§4) All combinations and locations of objects were used in a balanced manner to reduce potential biases due to preference for particular locations or objects. All training and testing trials were videotaped and analyzed by individuals blind to the treatment condition and the genotype of subjects. A mouse was scored as exploring an object when its head was oriented toward the object within a distance of 1 cm or when the nose was touching the object. The relative exploration time was recorded and expressed by a discrimination index [DI=(tnovel−tfamiliar)/(tnovel+tfamiliar)×100]. […]

For data set [4], the system named is C57BL/6J male mice. Nature of the data set: Novel object recognition memory (ORM) task after subthreshold training. It counts as in vivo. Conditions: 24 h test; for long-term memory formation vs vehicle-treated mice, ORM: 3, 10, 30 mg/kg s.c. after 3 min training; for dose-dependent effect on ORM: 3, 10, 30 mg/kg s.c.
Description: Training and testing for location-dependent object recognition memory (OLM) and novel object recognition memory (ORM) was carried out as previously described. […] The experimental apparatus was a white rectangular open field (30×23×21.5 cm).
24-h later mice were tested for memory retention (5 min) using the object recognition memory task, in which a familiar object was replaced with a novel one. A discrimination index (DI) above zero indicates a preference for the novel object.
Data set [5] addresses T1, HDAC2 (Mus musculus, UniProt P70288).
T1 construct: from tissue; host or cells: dorsal hippocampus of C57BL/6 mice
Description: Immunohistochemistry of dorsal hippocampus 2 hours after intrahippocampal infusion. It counts as in vivo, C57BL/6 mice. The note with it: 1.25 ng/side intrahippocampal infusion. The method, then:
as §1, §2

Data set [6] has as its system HDAC4. The data set is described as above. Conditions: 1.25 ng/side intrahippocampal infusion. In kind it is in vivo, C57BL/6 mice. The method, then: as §1, §2
Data set [7] concerns neuronal morphology. Description: DAPI staining of neuronal morphology after intrahippocampal infusion. Conditions: 1.25 ng/side intrahippocampal infusion, 2 hours. In kind it is in vivo, C57BL/6 mice. On the procedure: as §1, with “International). Sections were rinsed again in PBS and mounted on slides using ProLong Gold antifade reagent with DAPI (Invitrogen).” for “International).”

The subject of data set [8] is CBP^KIX/KIX mice. Description: OLM task in CBP KIX/KIX mutant mice after intrahippocampal infusion. In kind it is in vivo. The note with it: intrahippocampal 1.25 ng/side after 3 min training, 24 h. The method, then: as §3, §4
For data set [9], the system named is C57BL/6J male mice. Nature of the data set: Location-dependent object recognition memory (OLM) task after subthreshold training. The note with it: for memory for object location vs vehicle, OLM: 1.25 ng/side intrahippocampal after 3 min training. In kind it is in vivo. The method, then: Training and testing for location-dependent object recognition memory (OLM) and novel object recognition memory (ORM) was carried out as previously described. (See, e.g., Roozendaal et al., J Neurosci 30:5037-5046, 2010, the disclosure of which is incorporated herein by reference.) Prior to training, mice were handled 1-2 min for 5 days and were habituated to the experimental apparatus 3 min a day for 3 consecutive days in the absence of objects. The experimental apparatus was a white rectangular open field (30×23×21.5 cm).
(See, Stefanko et al., Proc Natl Acad Sci USA 106:9447-9452, 2009, the disclosures of which are incorporated herein by reference.) During the 24-h or 7-day retention test, mice were placed in the experimental apparatus for 5 min. For object recognition memory (ORM), one copy of the familiar object (A3) and a new object (B1) were placed in the same location as during the training trial. For location-dependent object recognition memory (OLM), one copy of the familiar object (A3) was placed in the same location as during the training trial and one copy of the familiar object (A4) was placed in the middle of the box.
All combinations and locations of objects were used in a balanced manner to reduce potential biases due to preference for particular locations or objects. All training and testing trials were videotaped and analyzed by individuals blind to the treatment condition and the genotype of subjects. A mouse was scored as exploring an object when its head was oriented toward the object within a distance of 1 cm or when the nose was touching the object. The relative exploration time was recorded and expressed by a discrimination index [DI=(tnovel−tfamiliar)/(tnovel+tfamiliar)×100].
Animals were tested for short-term memory 90 min after training.
In addition, a separate group of mice were given a 3 min training period and then a 7 day retention test.

Data set [10] concerns mice. Description: Extinction of cocaine conditioned place preference (CPP). The note with it: 10 mg/kg s.c. immediately following Posttest; Ext2 and Ext3. It counts as in vivo. On the procedure:
(§5) Conditioned place preference experiments were similar to those described in Malvaez et al. (Malvaez, M., et al., Biological Psychiatry, 67, 36-43, 2010, the disclosure of which is incorporated herein by reference). Mice were briefly handled for 3 consecutive days (days 1-3). Baseline preferences were assessed by placing the animals in the three-chambered apparatus for 15 min (Pretest, day 4). Time spent in each compartment was recorded. Conditioning took place over the next 4 days with the guillotine doors closed, confining animals to a specific compartment for 30 min (days 5-8). An unbiased paradigm was used such that half of the animals were injected with cocaine (20 mg/kg, i.p.) before placement in the checkered compartment and half were injected with cocaine before placement in the white compartment (CS+). The next day, mice received 0.9% saline injection (1.0 ml/kg, i.p.) before placement in the alternate compartment (CS−). Injections were alternated for subsequent conditioning sessions. Forty-eight hours after the last conditioning session, animals had access to all 3 compartments and preference was assessed in a drug-free state (15 min, Posttest; day 10). This is also the first of the extinction sessions which occurred daily until extinction criteria were met. […]

Data set [11] has as its system mice. Nature of the data set: Cocaine-primed reinstatement of conditioned place preference. The note with it: cocaine prime 10 mg/kg i.p. In kind it is in vivo. The method, then: as §5, with “The next day, mice received 0.9% saline injection (1.0 ml/kg, i.p.) before placement in the alternate compartment (CS−). Injections were alternated for subsequent conditioning sessions.” left out, “10).” for “10). This is also the first of the extinction sessions which occurred daily until extinction criteria were met.”
In an experiment with a similar design as described above, animals were confined to a specific compartment and given cocaine (5 mg/kg, i.p.) or saline on alternating days. […] Forty-eight hours after the last conditioning session, animals had free access to all 3 compartments and preference was assessed in a drug-free state (15 min, Posttest; day 10). […]

Data set [12] concerns mice. Description: Acquisition of cocaine conditioned place preference, treatment after conditioning sessions. The note with it: 10 mg/kg s.c. following each conditioning session; cocaine 5 mg/kg i.p. In kind it is in vivo. On the procedure:
In an experiment with a similar design as described above, animals were confined to a specific compartment and given cocaine (5 mg/kg, i.p.) or saline on alternating days. Immediately following the conditioning session (30 min), mice received an injection of RGFP966 (10 mg/kg, s.c.) or vehicle and then returned to the home cage. Forty-eight hours after the last conditioning session, animals had free access to all 3 compartments and preference was assessed in a drug-free state (15 min, Posttest; day 10). CPP score indicates preference by mean±S.E.M. of time in CS+ minus CS− compartment. All groups extinguished the preference for the CS+ compartment by extinction day 6. The following day, animals received a cocaine prime (10 mg/kg, i.p.) and were placed in the test chamber (Reinstatement).
In this test, mice were conditioned with two pairings of a low dose of cocaine (5 mg/kg, i.p.) and saline. Following each conditioning session, mice received RGFP966 (10 mg/kg, s.c.) or vehicle.

T1 sequence (P70288 whole entry): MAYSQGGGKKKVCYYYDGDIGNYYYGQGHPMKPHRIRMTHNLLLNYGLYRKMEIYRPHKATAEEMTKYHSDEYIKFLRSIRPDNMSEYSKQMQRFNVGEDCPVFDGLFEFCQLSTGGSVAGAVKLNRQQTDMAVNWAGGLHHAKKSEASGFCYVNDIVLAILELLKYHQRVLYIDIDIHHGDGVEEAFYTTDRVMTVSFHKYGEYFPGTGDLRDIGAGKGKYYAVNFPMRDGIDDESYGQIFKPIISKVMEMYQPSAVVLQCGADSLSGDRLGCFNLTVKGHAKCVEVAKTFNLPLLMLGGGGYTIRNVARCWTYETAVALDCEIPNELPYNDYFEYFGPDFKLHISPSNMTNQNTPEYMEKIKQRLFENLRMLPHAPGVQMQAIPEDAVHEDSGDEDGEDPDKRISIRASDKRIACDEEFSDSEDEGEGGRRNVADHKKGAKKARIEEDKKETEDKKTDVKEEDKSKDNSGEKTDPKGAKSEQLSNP

Take `Cc1ccc(C(=O)NCCCCCC(=O)Nc2ccc(F)cc2N)cc1` [RGFP136, N-(6-(2-amino-4-fluorophenylamino)-6-oxohexyl)-4-methylbenzamide]: the “immunoreactivity for H4K8Ac vs vehicle” value in data set [1] is given as “increase”. Besides, the maximum concentration (Cmax) – broadly, the peak of the concentration-time curve – in data set [2] is ~1.7 µM. In addition, the “memory for novel object location vs vehicle, OLM” value in data set [3] was “significantly greater memory”. Besides, the “long-term memory formation vs vehicle-treated mice, ORM” value in data set [4] is given as “significantly enhanced”. Further, the “dose-dependent effect on ORM” value in data set [4] was “Significant dose-dependent effects”. Moreover, the “HDAC2 expression vs vehicle” value in [5] is on record as “unchanged”. Moreover, the “HDAC4 nuclear expression vs vehicle” value in data set [6] was “loss of HDAC4 nuclear expression”. Further, the “neuronal morphology (DAPI staining) vs vehicle” value in [7] is reported as “does not alter neuronal morphology”. For the same compound, in data set [8], the “effect on long-term memory, OLM” value is recorded as “no effect”. Moreover, the figures for the “memory for object location vs vehicle, OLM” value in [9] (24 hours) and in data set [9] (7 day retention test) were “greater memory” and “significantly greater memory”, respectively. The “preference for the object in the novel location vs vehicle, OLM” value in data set [9] (30 mg/kg s.c. post-training, 24 h retention test) is “significant preference”.

In the case of `Nc1cc(F)ccc1NC(=O)/C=C/c1cnn(CC=Cc2ccccc2)c1` [RGFP966, (E)-N-(2-amino-4-fluorophenyl)-3-(1-cinnamyl-1H-pyrazol-4-yl)acrylamide], the “extinction of preference for the cocaine-paired compartment (CPP score)” value in data set [10] is on record as “rapid extinction”. In [4], the “long-term memory formation vs vehicle-treated mice, ORM” value is on record as “significantly enhanced”. Besides, the “dose-dependent effect on ORM” value in data set [4] was “lack of an observed dose effect”. Also, the results for the “reinstatement of preference after cocaine prime” value in data set [11] (3 mg/kg received during extinction) and in data set [11] (10 mg/kg received during extinction) were “significant preference” and “did not reinstate a preference”, respectively. The “effect on cocaine conditioned place preference (Posttest)” value in [12] is listed as “does not alter”.

Values taken from patent US20130210899A1, “Method and Therapeutic for the Treatment and Regulation of Memory Formation” (The Regents of the University of California, priority 2010, published 2013).
